According to patent US20120041211A1, “NOVEL PROCESS FOR PREPARING CARBOXY-CONTAINING PYRAZOLEAMIDO COMPOUNDS 597” (priority 2009, published 2012):

Experiment: Stability of solvate form on exposure to the lab atmosphere
Format: physicochemical
Conditions: 21° C., 30% relative humidity, material from wet suspension
Protocol: 20 mg of Form 4 was added to a small vessel. 0.711 ml of Form 4 saturated MeOH solution was added to the vessel making a suspension. The suspension was stirred for 7 days at 25° C. Thereafter the suspension was stirred at 21° C. for 1½ months. The wet suspension was analysed by XRPD (Cu-source) giving substantially the following d-values. […] For diffractogram see FIG. 8.
20 mg of Form 4 was added to a small vessel. 0.711 ml MTBE was added to the vessel making a suspension. The suspension was stirred for 7 days at 25° C. The wet suspension was analysed by XRPD (Cu-source) giving substantially the following d-values.

Structure (SMILES)	stability / form transformation on exposure to the lab atmosphere
CC(C)(C)c1c(C(=O)NC2C3CC4CC(C3)CC2C4)cnn1-c1ccc(C(=O)O)cc1 (centres unmarked) [MTBE Solvate, 4-[4-(2-adamantylcarbamoyl)-5-tert-butyl-pyrazol-1-yl]benzoic acid]	transforms to Hydrate
CC(C)(C)c1c(C(=O)NC2C3CC4CC(C3)CC2C4)cnn1-c1ccc(C(=O)O)cc1 (centres unmarked) [MeOH Solvate, 4-[4-(2-adamantylcarbamoyl)-5-tert-butyl-pyrazol-1-yl]benzoic acid]	rapidly transforms to Form 3
